# Assay results from ChEMBL document CHEMBL5365543, “Benzamidine Conjugation Converts Expelled Potential Active Agents into Antifungals against Drug-Resistant Fungi” (J Med Chem, 2023).
# The source made the active and inactive calls. The calls are words filed in the database; no cut-off is given here.
# Columns and labels:
# [1] = tested on: Candida albicans; assay: Antifungal activity against clinical isolate Candida albicans SCUPC2R14MPG2A harbouring UPC2 mutation overexpressing […] Erg11 assessed as inhibition of fungal growth measured after 24 hrs by CLSI based microtiter plate analysis; format: functional
# [2] = tested on: Candida albicans; assay: Antifungal activity against clinical isolate Candida albicans SCMRRIR34MPG2A harbouring MRR1 mutation overexpressing efflux pump MdrL assessed as inhibition of fungal growth measured after 24 hrs by CLSI based microtiter plate analysis; format: functional
# [3] = tested on: Cryptococcus neoformans; assay: Antifungal activity against clinical isolate fluconazole-resistant Cryptococcus neoformans H99 assessed as inhibition of fungal growth measured after 24 hrs by CLSI based microtiter plate analysis; format: functional
# [4] = tested on: [Candida] auris; assay: Antifungal activity against clinical isolate fluconazole-resistant Candida auris CBS12774 assessed as inhibition of fungal growth measured after 24 hrs by CLSI based microtiter plate analysis; format: functional; details: Candidozyma auris
# [5] = tested on: Candida albicans; assay: Antifungal activity against wild-type Candida albicans SC5314 assessed as inhibition of fungal growth measured after 24 hrs by CLSI based microtiter plate analysis; format: functional
# [6] = tested on: Candida albicans; assay: Antifungal activity against clinical isolate fluconazole-resistant Candida albicans G5 harbouring MRR1 mutation overexpressing MdrL assessed as inhibition of fungal growth measured after 24 hrs by CLSI based microtiter plate analysis; format: functional
# [7] = tested on: Candida tropicalis; assay: Antifungal activity against clinical isolate fluconazole-resistant Candida tropicalis CT10 assessed as inhibition of fungal growth measured after 24 hrs by CLSI based microtiter plate analysis; format: functional
# [8] = tested on: Candida albicans; assay: Antifungal activity against clinical isolate Candida albicans YEM13 overexpressing efflux pump MdrL assessed as inhibition of fungal growth measured after 24 hrs by CLSI based microtiter plate analysis; format: functional
# [9] = tested on: Candida albicans; assay: Antifungal activity against clinical isolate fluconazole-resistant Candida albicans Gu5 harbouring TAC1 mutation overexpressing efflux pump CdrL and Cdr2 assessed as inhibition of fungal growth measured after 24 hrs by CLSI based microtiter plate analysis; format: functional
# [10] = tested on: Candida albicans; assay: Antifungal activity against clinical isolate fluconazole-resistant Candida albicans DSY296 harbouring TAC1 mutation overexpressing efflux pump CdrL and Cdr2 assessed as inhibition of fungal growth measured after 24 hrs by CLSI based microtiter plate analysis; format: functional
# [11] = tested on: Candida albicans; assay: Antifungal activity against clinical isolate Candida albicans YEM15 overexpressing efflux pump CdrL and Cdr2 assessed as inhibition of fungal growth measured after 24 hrs by CLSI based microtiter plate analysis; format: functional
# [12] = tested on: Candida albicans; assay: Antifungal activity against clinical isolate fluconazole-resistant Candida albicans CA632 assessed as inhibition of fungal growth measured after 24 hrs by CLSI based microtiter plate analysis; format: functional
# [13] = Drug accumulation in wild-type Candida albicans SC5314 at 50 microg/ml incubated for 3 hrs by HPLC analysis; format: ADME; details: dose 50 µg/ml
# [14] = tested on: Nakaseomyces glabratus; assay: Antifungal activity against clinical isolate fluconazole-resistant Candida glabrata CG2 assessed as inhibition of fungal growth measured after 24 hrs by CLSI based microtiter plate analysis; format: functional
# [15] = tested on: [Candida] auris; assay: Antifungal activity against clinical isolate fluconazole-resistant Candida auris CBS12776 assessed as inhibition of fungal growth measured after 24 hrs by CLSI based microtiter plate analysis; format: functional; details: Candidozyma auris
# [16] = tested on: Candida albicans; assay: microbe, parasite or virus in culture; format: functional; details: DSY654, time 24 hrs
# Description: Antifungal activity against efflux pump-deficient Candida albicans DSY654 assessed as inhibition of fungal growth measured after 24 hrs by CLSI based microtiter plate analysis
# [17] = Candida albicans, SC5314, 24 h, read-out: MIC80
# [18] = Candida albicans, SC5314, read-out: MIC80
smiles,measurement,setting,value
CCOC(=O)C1=C(COCCNCCCOc2ccc(C(=N)N)cc2)NC(C)=C(C(=O)OC)C1c1ccccc1Cl (centres undefined),MIC80,[1],4 µg/mL
same,MIC80,[2],8 µg/mL
same,MIC80,[3],8 µg/mL
same,MIC80,[4],8 µg/mL
same,MIC,[5],inactive
same,MIC80,[5]; [17],4 µg/mL
same,MIC80,[6],4 µg/mL
same,MIC80,[7],4 µg/mL
same,MIC80,[8],4 µg/mL
same,MIC80,[9],4 µg/mL
same,MIC80,[10],8 µg/mL
same,MIC80,[11],4 µg/mL
same,MIC80,[12],4 µg/mL
same,Drug uptake,[13],Active
same,MIC80,[14],8 µg/mL
same,MIC80,[15],8 µg/mL
Fc1ccc(C(c2ccc(F)cc2)N2CCN(C/C=C/c3ccccc3)CC2)cc1 [FLUNARIZINE],MIC,[16],8 µg/mL
same,MIC,[5],inactive
C=C1C(=O)[C@@]2(C)CC[C@@H]3[C@@]1(CC[C@H]1[C@@]3(C)CCC[C@@]1(C)C(=O)OCCCCCCCCCOc1ccc(C(=N)N)cc1)C2,MIC,"[5]; Candida albicans, SC5314",32 µg/mL
same,Drug uptake,[13]; BLD = below limit of detection,Bld
CC(=O)O[C@H]1C[C@@]2(C)[C@@H](C[C@@H](O)[C@H]3[C@@]4(C)CC[C@@H](O)[C@@H](C)[C@@H]4CC[C@@]32C)/C1=C(\CCC=C(C)C)C(=O)O [FUSIDIC ACID],MIC,"[5]; Candida albicans, SC5314",> 256 µg/mL
same,Drug uptake,[13]; BLD = below limit of detection,Bld
CC1(C)CC[C@]2(C(=O)O)CC[C@]3(C)C(=CC[C@@H]4[C@@]5(C)CC[C@H](O)C(C)(C)[C@@H]5CC[C@]43C)[C@@H]2C1 [OLEANOLIC_ACID],MIC,"[5]; Candida albicans, SC5314",> 256 µg/mL
same,Drug uptake,[13]; BLD = below limit of detection,Bld
C[C@@H]1[C@H](O)[C@@H](C)/C=C/C=C/C=C/C=C/C=C/C=C/C=C/[C@H](O[C@@H]2O[C@H](C)[C@@H](O)[C@H](N)[C@@H]2O)C[C@@H]2O[C@](O)(C[C@@H](O)C[C@@H](O)[C@H](O)CC[C@@H](O)C[C@@H](O)CC(=O)O[C@H]1C)C[C@H](O)[C@H]2C(=O)O [AMPHOTERICIN B],MIC80,[1],0.5 µg/mL
same,MIC80,[3],1 µg/mL
same,MIC80,[4],1 µg/mL
same,MIC80,[5]; [17],0.5 µg/mL
same,MIC80,[6],0.5 µg/mL
same,MIC80,[7],2 µg/mL
same,MIC80,[8],0.5 µg/mL
same,MIC80,[9],1 µg/mL
same,MIC80,[10],0.5 µg/mL
same,MIC80,[11],2 µg/mL
same,MIC80,[12],0.5 µg/mL
same,MIC80,[14],0.5 µg/mL
same,MIC80,[15],1 µg/mL
C=C1C(=O)[C@@]23CC[C@H]4[C@@](C)(CCC[C@@]4(C)C(=O)O)[C@@H]2CC[C@]1(O)C3,MIC,[16],256 µg/mL
same,MIC,[5],inactive
same,Drug uptake,[13]; BLD = below limit of detection,Bld
C=C1C(=O)[C@@]2(C)CC[C@@H]3[C@]1(CC[C@H]1[C@@]3(C)CCC[C@@]1(C)C(=O)O)C2,Drug uptake,[13]; BLD = below limit of detection,Bld
C[C@@]12CC[C@@H]3[C@@](CC[C@H]4[C@@]3(C)CCC[C@@]4(C)C(=O)O)(CC1=O)C2 [ISOSTEVIOL],Drug uptake,[13]; BLD = below limit of detection,Bld
C=C1[C@H](O)[C@@]23CC[C@H]4[C@@](C)(CCC[C@@]4(C)C(=O)OCCCOc4ccc(C(=N)N)cc4)[C@@H]2CC[C@]1(O)C3,MIC80,[5]; [18],64 µg/mL
same,Drug uptake,[13],Active
CC1(C)C2CCC1(C)C(O)C2 (centres undefined) [BORNEOL],MIC,"[5]; Candida albicans, SC5314",> 256 µg/mL
same,Drug uptake,[13]; BLD = below limit of detection,Bld
COc1ccc2c(CCCI)c3[n+](cc2c1OC)CCc1cc2c(cc1-3)OCO2.[I-],MIC80,[16],16 µg/mL
same,MIC80,[5]; [18],64 µg/mL
O=C(OCCOCCO)c1ccccc1Nc1cccc(C(F)(F)F)c1 [ETOFENAMATE],MIC,[16],16 µg/mL
same,MIC,[5],inactive
C=CCc1ccc(O)c(-c2ccc(O)c(CC=C)c2)c1 [HONOKIOL],MIC,[16],4 µg/mL
same,Drug uptake,[13]; BLD = below limit of detection,Bld
CC1(C)CC[C@]2(C(=O)OCCCOc3ccc(C(=N)N)cc3)CC[C@]3(C)C(=CC[C@@H]4[C@@]5(C)CC[C@H](O)C(C)(C)[C@@H]5CC[C@]43C)[C@@H]2C1,MIC80,[5]; [18],4 µg/mL
same,Drug uptake,[13],Active
BrCCC[P+](c1ccccc1)(c1ccccc1)c1ccccc1.[Br-],MIC80,[16],> 256 µg/mL
same,MIC80,[5]; [18],> 256 µg/mL
N=C(N)c1ccc(OCCCN2CCN(C(c3ccc(F)cc3)c3ccc(F)cc3)CC2)cc1,MIC80,[5]; [18],32 µg/mL
same,Drug uptake,[13],Active
CC(=O)O[C@H]1C[C@@]2(C)[C@@H](C[C@@H](O)[C@H]3[C@@]4(C)CC[C@@H](O)[C@@H](C)[C@@H]4CC[C@@]32C)/C1=C(\CCC=C(C)C)C(=O)OCCCOc1ccc(C(=N)N)cc1,MIC80,[5]; [18],16 µg/mL
same,Drug uptake,[13],Active
C=C1[C@H](O)[C@@]23CC[C@H]4[C@@](C)(CCC[C@@]4(C)C(=O)O)[C@@H]2CC[C@]1(O)C3,MIC,"[5]; Candida albicans, SC5314",> 256 µg/mL
same,Drug uptake,[13]; BLD = below limit of detection,Bld
Cc1ccc(Sc2ccccc2N2CCNCC2)c(C)c1 [VORTIOXETINE],MIC,[16],4 µg/mL
same,Drug uptake,[13]; BLD = below limit of detection,Bld
